# Results taken from ChEMBL document CHEMBL5120883, “The Dawn of Allosteric BCR-ABL1 Drugs: From a Phenotypic Screening Hit to an Approved Drug” (2022).
# System: BaF3
# Assay: Antiproliferative activity against mouse BaF3 cells expressing Bcr-Abl assessed as cell growth inhibition
# Type: functional
row,GI50 [nM],SMILES
1,720,FC(F)(F)Oc1ccc(Nc2cc(NCCN3CCOCC3)ncn2)cc1
2,290,FC(F)(F)Oc1ccc(Nc2cc(-c3ccc4[nH]ccc4c3)ncn2)cc1
3,920,FC(F)(F)c1ccc(Nc2cc(NCCN3CCOCC3)ncn2)cc1
4,120,NS(=O)(=O)c1ccc(-c2cc(Nc3ccc(OC(F)(F)F)cc3)ncn2)cc1
5,720,FC(F)(F)Oc1cccc(Nc2cc(NCCN3CCOCC3)ncn2)c1
6,90,FC(F)(F)Oc1ccc(Nc2cc(-c3cn[nH]c3)ncn2)cc1
